According to patent publication US20250206751A1, “HETEROCYCLIC COMPOUND FOR INDUCING DEGRADATION OF G12D MUTANT KRAS PROTEIN” (Astellas Pharma Inc., priority 2022, published 2025):

Columns and labels:
[1] = test system: human G12D mutant KRAS-positive pancreatic cancer line AsPC-1; assay: Non-anchorage-dependent cell growth inhibition, spheroid 3D cell culture (Test Example 3); type: cell-based; conditions: AsPC-1 spheroid 3D culture, 6 days, CellTiter Glo 2.0
Method in brief: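 AsPC-1 spheroids, 5×10^2 cells per well on low-adhesion round-bottom plates in RPMI 1640/10% FBS, dosed next day at 10 or 6 points spanning 10 μM to 0.3 nM final for 6 days at 37° C., 5% CO2. Viability by CellTiter Glo 2.0 luminescence; IC50 by Sigmoid-Emax regression, DMSO 100% and cell-free medium 0%.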

[2] = test system: human KRAS G12D mutant-positive PK-59 pancreatic cancer cell line-derived xenograft; assay: Anti-tumor activity in PK-59 xenograft mice (Test Example 4); type: in vivo; conditions: 10 mg/kg into tail vein, once a week, twice in total; PK-59 xenograft nude mice
Description: Test Example 4: Evaluation of Anti-Tumor Activity in Human KRAS G12D Mutant -Positive PK-59 Pancreatic Cancer Cell Line-Derived Xenograft Mice
PK-59 cells (RIKEN BRC, RCB1901) were cultured using a RPMI 1640 medium containing 10% fetal bovine serum in the presence of 5% CO2 at 37° C. The PK-59 cells were collected and suspended in PBS, and after adding an equal amount of Matrigel (from Becton, Dickinson and Company), 4-5-week-old male nude mice (CAnN.Cg-Foxn1^nu/CrlCrlj (nu/nu), from Charles River Laboratories Japan) were subcutaneously inoculated with the cell suspension of 1.0-2.0×10^7 cells/mL in a volume of 100 μL per mouse. About two weeks after the inoculation, the mice were divided into groups so that all the groups had approximately the same tumor volume and body weight, and administration of test compounds was started on the next day. The study was conducted for 5 mice each of a vehicle group and test compound administration groups. The compounds were dissolved in a solvent containing ethanol (from FUJIFILM Wako Pure Chemical Corporation), a 5% glucose solution (from Otsuka Pharmaceutical), 1M hydrochloric acid (from Kanto Chemical Co., Inc.), 50% (2-hydroxypropyl)-β-cyclodextrin (HP-βCD) solution (from ROQUETTE), HCO-40 (from Nikko Chemicals Co., Ltd.) and 1M sodium hydroxide solution (from Kanto Chemical Co., Inc.) at a liquid amount ratio of 4:84.4:1.1:1:9:0.5. The test compounds dissolved in the respective solvent for the test compound administration groups and the solvent for the vehicle group were administered into tail vein. The administration was performed once a week and twice in total. The tumor sizes and the body weights were measured twice a week. The tumor volumes were calculated using the following equation.
[Tumor volume (mm^3)]=[Long diameter of the tumor (mm)]×[Short diameter of the tumor (mm)]^2×0.5
The tumor growth inhibition rate (%) by the test compounds were calculated with the tumor volumes of the test compound administration groups on the previous day of the start of the administration taken as 100% inhibition and the tumor volumes of the vehicle groups two weeks after the initial administration taken as 0% inhibition. In addition, when the tumor volume of a test compound administration group was smaller than the tumor volume on the previous day of the start of the administration, the tumor regression rate (%) by the test compound was calculated with the tumor volume on the previous day of the start of the administration taken as 0% regression and with the tumor volume 0 taken as 100% regression.

Compound: CO[C@@H](C)COc1cc(N(C)[C@H]2CCNC2)c2cc(C3CC3)c(-c3c(C)c(F)cc4[nH]ncc34)c(OCc3ccc(-c4cn([C@H](C(=O)N5C[C@H](O)C[C@H]5C(=O)N[C@@H](CO)c5ccc(-c6scnc6C)cc5)C(C)C)nn4)cc3)c2n1 (atropisomer, axis not shown; (M)) [Example 11, (4R)-1-[(2S)-2-{4-[4-({[(7M)-6-cyclopropyl-7-(6-fluoro-5-methyl-1H-indazol-4-yl)-2-[(2S)-2-methoxypropoxy]-4-{methyl[(3S)-pyrrolidin-3-yl]amino}quinazolin-8-yl]oxy}methyl)phenyl]-1H-1,2,3-triazol-1-yl}-3-methylbutanoyl]-4-hydroxy-N-{(1R)-2-hydroxy-1-[4-(4-methyl-1,3-thiazol-5-yl)phenyl]ethyl}-L-prolinamide]
- IC50 [1]: 19 nM
- Anti-Tumor Activity Two Weeks After Initial Administration: tumor regression rate [2]: 6% regression

Compound: CO[C@@H](C)COc1nc(N(C)[C@@H]2CCNC2)c2cc(C3CC3)c(-c3c(C)c(F)cc4[nH]ncc34)c(OCc3ccc(-c4cn([C@H](C(=O)N5C[C@H](O)C[C@H]5C(=O)N[C@@H](CO)c5ccc(-c6scnc6C)cc5)C(C)C)nn4)cc3)c2n1 (atropisomer, axis not shown; (M)) [Example 53]
- IC50 ([1]; Homo sapiens, ASPC1, 144 h): 10 nM
- Anti-Tumor Activity Two Weeks After Initial Administration: tumor regression rate [2]: 53% regression

Compound: Cc1ncsc1-c1ccc([C@H](CO)NC(=O)[C@@H]2C[C@@H](O)CN2C(=O)[C@H](C(C)C)n2cc(-c3ccc(COc4c(-c5c(C)c(F)cc6[nH]ncc56)c(C5CC5)cc5c(N(C)[C@H]6CCNC6)nc(OC[C@H]6CCCO6)nc45)cc3)nn2)cc1 (atropisomer, axis not shown; (M)) [Example 9, (4R)-1-[(2S)-2-{4-[4-({[(7M) 6-cyclopropyl-7-(6-fluoro-5-methyl-1H-indazol-4-yl)-4-{methyl[(3S)-pyrrolidin-3-yl]amino}-2-{[(2R)-oxolan-2-yl]methoxy}quinazolin-8-yl}oxy}methyl)phenyl]-1H-1,2,3-triazol-1-yl}-3-methylbutanoyl]-4-hydroxy-N-{(1R)-2-hydroxy-1-[4-(4-methyl-1,3-thiazol-5-yl)phenyl]ethyl}-L-prolinamide]
- IC50 ([1]; Homo sapiens, ASPC1, 144 h): 9 nM
- Anti-Tumor Activity Two Weeks After Initial Administration: tumor growth inhibition rate [2]: 81% inhibition

Compound: CCn1nccc1-c1ccc([C@H](CO)NC(=O)[C@@H]2C[C@@H](O)CN2C(=O)[C@H](C(C)C)n2cc(-c3ccc(COc4c(-c5c(C)c(F)cc6[nH]ncc56)c(C5CC5)cc5c(N(C)[C@H]6CCNC6)nc(OC[C@H](C)OC)nc45)cc3)nn2)cc1 (atropisomer, axis not shown; (M)) [Example 13]
- IC50 ([1]; Homo sapiens, ASPC1, 144 h): 10 nM
- Anti-Tumor Activity Two Weeks After Initial Administration: tumor regression rate [2]: 26% regression

Compound: CCN(c1nc(OC[C@H](C)OC)nc2c(OCc3ccc(-c4cn([C@H](C(=O)N5C[C@H](O)C[C@H]5C(=O)N[C@@H](CO)c5ccc(-c6scnc6C)cc5)C(C)C)nn4)cc3)c(-c3c(C)c(F)cc4[nH]ncc34)c(C3CC3)cc12)[C@H]1CCNC1 (atropisomer, axis not shown; (M)) [Example 50, (4R)-1-[(2S)-2-(4-{4-[({(7M)-6-cyclopropyl-4-{ethyl[(3S)-pyrrolidin-3-yl]amino}-7-(6-fluoro-5-methyl-1H-indazol-4-yl)-2-[(2S)-2-methoxypropoxy]quinazolin-8-yl}oxy)methyl)phenyl}-1H-1,2,3-triazol-1-yl)-3-methylbutanoyl]-4-hydroxy-N-{(1R)-2-hydroxy-1-[4-(4-methyl-1,3-thiazol-5-yl)phenyl]ethyl}-L-prolinamide]
- IC50 ([1]; Homo sapiens, ASPC1, 144 h): 8 nM
- Anti-Tumor Activity Two Weeks After Initial Administration: tumor regression rate [2]: 20% regression
